Assay results from patent publication US10910085B2, “Methods of making polypeptides with non-standard amino acids using genomically recoded organisms” (President and Fellows of Harvard College, priority 2014, dated 2021).

Legend:
[1] = system: genomically recoded organism (GRO); experiment: titration of optimal NSAA concentration by GFP_UAG fluorescence assay (FL/ODmax); type: cell-based, E. coli; settings: GRO bearing synthetase/tRNA and GFP_UAG reporter plasmids; NSAA range 10 uM to 10 mM
Description: First, genomically recoded organisms (“GRO”) as described above were cultured in triplicate in LB-Lennox broth, across a dilution series from 1 uM to 10 mM (incl. 0 uM) NSAA in a 96-well plate. GRO growth (OD600) was kinetically monitored to quantify growth rates and reductions were measured as time to OD600=0.4 and Vmax (dODmax/dt). These experiments helped define the sub-toxic concentration range of an NSAA of interest. Second, the GRO strain was transformed with an L-arabinose-inducible plasmid bearing the synthetase/tRNA that are specific for the NSAA side chain reactivity being evaluated. See Lajoie, M. J. et al. Genomically recoded organisms expand biological functions. […] Only GROs will read these codons as sense codons, not terminate the GFP_UAG translation, and generate NSAA-containing GFP that fluoresces. Patent translation of GFP_UAG (e.g., fluorescence) requires culture in NSAA and transformation with a plasmid bearing the proper synthetase/tRNA pair to use that NSAA. In this way, GFP fluorescence can be a quantitative metric for NSAA-containing protein translation. […] Due to auto-fluorescence of LB-Lennox media, the cells were washed twice in phosphate-buffered saline (pH 7.2) by centrifugation at 4,000×g for 5 minutes. […] GFP translation was normalized by OD600 as fluorescence divided by OD600 when measured (FL/OD), and optimal concentration of NSAA was FL/ODmax.

[2] = system: genomically recoded organism (GRO); type: cell-based, E. coli; settings: pAzF held constant at 1 mM; for reductions in FL/OD (GFP fluorescence divided by OD600): alkyne containing compound varied from 10 uM-10 mM, GRO culture; for reductions in OD consistent with reaction with pAzF: canonical amino acid controls
Excerpt: To meet the third criteria, NSAA expression using previously evolved amino acyl synthetase/tRNA pairs was used. Synthetases charge a cognate amino acid substrate onto the cognate tRNA pair. An amino acid, a synthetase, and a tRNA form a triad that is required to make that amino acid competent for translation and addition to the nascent polypeptide chain. Amino acid/synthetase/tRNA triads are generally specific thereby preserving the fidelity of the translation of genetic code into proteins. As such, new synthetase/tRNA pairs that function specifically with each other are generated and used to add new NSAAs to the genetic code (or to evaluate the bio-orthogonality of bond-forming NSAA candidates). Alternatively, known synthetase/tRNA pairs are used to evaluate the bio-orthgonality of bond-forming NSAA candidate pairs.
First, genomically recoded organisms (“GRO”) as described above were cultured in triplicate in LB-Lennox broth, across a dilution series from 1 uM to 10 mM (incl. 0 uM) NSAA in a 96-well plate. GRO growth (OD600) was kinetically monitored to quantify growth rates and reductions were measured as time to OD600=0.4 and Vmax (dODmax/dt). These experiments helped define the sub-toxic concentration range of an NSAA of interest. Second, the GRO strain was transformed with an L-arabinose-inducible plasmid bearing the synthetase/tRNA that are specific for the NSAA side chain reactivity being evaluated. See Lajoie, M. J. et al. Genomically recoded organisms expand biological functions. Science 342, 357-360, doi:10.1126/science.1241459 (2013) hereby incorporated by reference in its entirety. […] Only GROs will read these codons as sense codons, not terminate the GFP_UAG translation, and generate NSAA-containing GFP that fluoresces. Patent translation of GFP_UAG (e.g., fluorescence) requires culture in NSAA and transformation with a plasmid bearing the proper synthetase/tRNA pair to use that NSAA. In this way, GFP fluorescence can be a quantitative metric for NSAA-containing protein translation. […] Due to auto-fluorescence of LB-Lennox media, the cells were washed twice in phosphate-buffered saline (pH 7.2) by centrifugation at 4,000×g for 5 minutes. After the second wash, the cells were resuspended in 150 uL PBS for measurement of growth (OD600) and GFP fluorescence (excitation 388 nm, emission 510 nm) using a Biotek Synergy H1/H4 or a Molecular Devices M5 Spectrophotometer. GFP translation was normalized by OD600 as fluorescence divided by OD600 when measured (FL/OD), and optimal concentration of NSAA was FL/ODmax.
Once optimal NSAA concentration was determined, a candidate NSAA is tested to determine whether it impairs translation of the other cognate pair. […] After culture and washing as above, FL/OD was measured and plotted as a function of the NSAA being varied. […]

| SMILES | reductions in FL/OD (GFP fluorescence divided by OD600) [2] | reductions in OD consistent with reaction with pAzF [2] | also measured |
| --- | --- | --- | --- |
| [N-]=[N+]=Nc1ccc(C[C@H](N)C(=O)O)cc1 [pAzF, para-azido-phenylalanine] |  |  | optimal concentration of NSAA (FL/ODmax) [1]: 1 mM |
| C#CCONCC(=O)O [pPrG, propargyl-oxyglycine] | no reductions in FL/OD |  |  |
| N[C@@H](CO)C(=O)O [serine] |  | do not show any reductions in OD |  |
| N[C@@H](Cc1ccc(O)cc1)C(=O)O [tyrosine] |  | do not show any reductions in OD |  |
| C1#CCCCCCC1 [unsubstituted cyclo-octynes] | no reductions in FL/OD |  |  |
